Assay results from PubChem BioAssay (NCI).
Several values for one entry are separate records, joined by “and”; a condition that tells them apart may be missing. Identical values can stand only once.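 Where inhibition never reached the appropriate level, the endpoint shown equals the highest concentration tested. Otherwise, values were interpolated linearly from a five-concentration, 48-hour dose response in 96-well plates. GI50 = concentration required for 50% inhibition of growth. At the TGI there is no net growth.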

How the values were obtained:
Experiment in all cases: NCI anticancer screen, dose series, 48 h
NCI-H23 lung = system: NCI-H23 lung
SK-MEL-5 melanoma = system: SK-MEL-5 melanoma
HS 578T breast = system: HS 578T breast
RXF 393 renal = system: RXF 393 renal
A498 renal = system: A498 renal
786-0 renal = system: 786-0 renal
MALME-3M melanoma = system: MALME-3M melanoma
CAKI-1 renal = system: CAKI-1 renal
DMS 273 small cell lung = system: DMS 273 small cell lung
KM20L2 colon = system: KM20L2 colon

SMILES | TGI (NCI-H23 lung) | TGI (SK-MEL-5 melanoma) | TGI (HS 578T breast) | TGI (RXF 393 renal) | TGI (A498 renal) | TGI (786-0 renal) | TGI (MALME-3M melanoma) | TGI (CAKI-1 renal) | GI50 (NCI-H23 lung) | GI50 (SK-MEL-5 melanoma) | GI50 (HS 578T breast) | GI50 (RXF 393 renal) | GI50 (A498 renal) | GI50 (786-0 renal) | GI50 (MALME-3M melanoma) | GI50 (CAKI-1 renal) | TGI (DMS 273 small cell lung) [µM] | TGI (KM20L2 colon) [µM]
O=C(O)c1ccc(CI)cc1 | 33.1 µM | 31.3 µM | > 100 µM | 37.6 µM | 35.3 µM | 10.8 µM | 23.3 µM | 27.6 µM | – | – | – | – | – | – | – | – | – | –
CCOC(=O)c1cc2cc3c4c(c2oc1=O)CCCN4CCC3 | > 100 µM | 26.8 µM | 89.2 µM | 39.4 µM | 79 µM | > 100 µM | > 100 µM | > 100 µM | – | – | – | – | – | – | – | – | – | –
CC(C)Nc1cc(-c2c[nH]c(C(=O)N[C@H](CO)c3cccc(Cl)c3)c2)c(Cl)cn1 | 16 µM and > 10 µM | 7.82 µM and 9.83 µM | 60.5 µM and > 10 µM | 15 µM and > 10 µM | 1.41 µM and 1.95 µM | 18.3 µM and > 10 µM | 0.149 µM | 19.1 µM and > 10 µM | 0.308 µM and 0.258 µM | 0.64 µM and 0.752 µM | 4.32 µM and > 9.06 µM | 2.14 µM and 1.06 µM | 0.084 µM and 0.255 µM | 2.85 µM and 3.23 µM | 0.0249 µM and 0.0475 µM | 1.17 µM and 1.87 µM | – | –
COc1ccc2c(=O)cc(-c3ccccc3)[nH]c2c1 | > 100 µM | 7.4 µM | > 100 µM | – | 5.32 µM | > 100 µM | > 100 µM | > 100 µM | 1.25 µM | 0.323 µM | 0.758 µM | 0.762 µM | 0.263 µM | 4.56 µM | 0.684 µM | 0.323 µM | – | –
CC(C)c1cnn2c(NCc3ccccc3)cc(NC[C@H]3CCNC[C@@H]3O)nc12 | 2.98 µM | 2.35 µM and 3.59 µM | 4.63 µM and 5.41 µM | 1.09 µM and 2.83 µM | 4.2 µM and 8.15 µM | 12.3 µM and 12.2 µM | 2.6 µM and 2.72 µM | 9.13 µM and 11.4 µM | 0.463 µM | 0.742 µM and 1.19 µM | 0.839 µM and 1.38 µM | 0.352 µM and 1.03 µM | 1.63 µM and 2.59 µM | 0.547 µM and 0.779 µM | 0.805 µM and 0.3 µM | 0.472 µM and 1.65 µM | – | –
NS(=O)(=O)c1ccc(-n2nc3c(c2-c2ccc(Cl)cc2)Cc2ccccc2-3)cc1 | 19.6 µM | 3.33 µM | 33 µM | 34.4 µM | 19.1 µM | 30.7 µM | 14.7 µM | 31.6 µM | 3.27 µM | 1.36 µM | 12.1 µM | 17 µM | 4.7 µM | 14.6 µM | 2.96 µM | 17.5 µM | – | –
CN(CCCCCl)P(=O)(OCCS(=O)(=O)CC(NC(=O)CCC(N)C(=O)O)C(=O)NC(C(=O)O)c1ccccc1)OCC1OC(n2ccc(N)nc2=O)C(F)(F)C1O (configuration not stated) | 16.8 µM | > 100 µM | > 100 µM | > 45.1 µM | > 100 µM | – | > 100 µM | 5.8 µM | 0.0483 µM | 0.484 µM | > 60.4 µM | 0.744 µM | 0.943 µM | 0.02 µM | 3.06 µM | 0.0438 µM | – | –
CC(=O)c1ccc2c(c1)C1C=CCC1[C@H](c1cc3c(cc1Br)OCO3)N2 (some centres not stated) | 33.4 µM | 5.81 µM | 2.19 µM | 3.35 µM | 2.14 µM | 15.3 µM | 45.8 µM | 20.5 µM | 2.24 µM | 1.13 µM | 0.713 µM | 1.85 µM | 0.482 µM | 1.53 µM | 0.86 µM | 0.512 µM | – | –
COc1cc(F)c(F)c(Nc2ccc(I)cc2F)c1NS(=O)(=O)C1(C[C@H](O)CO)CC1 | > 10 µM | > 10 µM | > 10 µM | > 9.5 µM | 0.478 µM | > 10 µM | 0.22 µM | > 10 µM | 0.283 µM | 1.02 µM | > 5.43 µM | 1.05 µM | 0.0936 µM | > 4.02 µM | 0.0198 µM | 0.44 µM | – | –
COc1ccc2cc(/C=C/C(=O)c3ccc(Cl)cc3Cl)ccc2c1 | > 100 µM | 45.2 µM | > 100 µM | 65.6 µM | 58.9 µM | > 100 µM | 73.9 µM | 89.1 µM | 47 µM | 20.9 µM | 39.3 µM | 20.4 µM | 28.8 µM | 36.7 µM | 27 µM | 42.7 µM | – | –
COC(=O)C1C(O)CCC2CN3CCc4c([nH]c5ccccc45)C3CC21 (configuration not stated) | > 100 µM | > 100 µM | > 100 µM | > 100 µM | > 100 µM | > 100 µM | > 100 µM | > 100 µM | – | – | – | – | – | – | – | > 100 µM | – | –
N#Cc1ccccc1C(Cl)(Cl)c1cnccn1 | > 100 µM | 87.3 µM | – | > 100 µM | > 100 µM | 32.3 µM | – | > 100 µM | – | – | – | – | – | – | – | – | > 100 | –
C/C=C(/I)CBr | 31.4 µM | 29.4 µM | – | 31.2 µM | – | 30.8 µM | 31.4 µM | 2.85 µM | – | – | – | – | – | – | – | – | – | 88.5
O=C(NOC[C@H](O)CO)c1ccc(F)c(F)c1Nc1ccc(I)cc1F | > 100 µM | > 100 µM | > 100 µM | 43.4 µM and > 10 µM | 0.0647 µM and 0.0694 µM | > 100 µM | < 0.01 µM and 0.00323 µM | > 100 µM | 0.0188 µM and 0.0537 µM | 4.17 µM and > 10 µM | 34.5 µM and > 2.97 µM | 0.363 µM and 0.342 µM | < 0.01 µM and 0.00351 µM | 21.6 µM and > 10 µM | < 0.01 µM | – | – | –
O=C1c2ccccc2-[n+]2ccc3c([nH]c4ccccc43)c21 | 2.76 µM | 0.4 µM | > 31.6 µM | 1.26 µM | 3.15 µM | 2.58 µM | 0.181 µM | 2.07 µM | – | – | – | – | – | – | – | – | – | –
Nc1nonc1-c1nc2cnccc2n1C1CC1 | > 25 µM | > 19 µM | 9.54 µM | 6.92 µM | 8.77 µM | > 25 µM | > 25 µM | > 25 µM | 7.3 µM | 5.81 µM | 1.16 µM | 1.2 µM | 1.97 µM | 5.44 µM | > 15.9 µM | 1.45 µM | – | –
CC1=C[C@H]2c3c([nH]c4ccccc34)C(c3c[nH]c4ccccc34)[C@H]2CC1 (some centres not stated) | – | 28 µM | – | 4.19 µM | 35.8 µM | 11.2 µM | 35.1 µM | 26.3 µM | – | – | – | – | – | – | – | – | 15.8 | –
O=[N+]([O-])c1cc(Cl)c2[nH]c3c(Cl)cc([N+](=O)[O-])cc3c2c1 | 28.2 µM | 0.651 µM | > 100 µM | 18.8 µM | 1.36 µM | 16.7 µM | 4.04 µM | 0.752 µM | 0.213 µM | 0.129 µM | 0.609 µM | 0.461 µM | 0.15 µM | 0.294 µM | 0.265 µM | 0.209 µM | – | –
